From patent US9346846B1, “Anti-cancer compounds and methods for treating cancer” (YALE UNIVERSITY, priority 2013, dated 2016)
“Also recorded” adds a separate entry of the source.

Experiments:
Format in all cases: cell-based
[1] = tested on: pCHK2; assay: Western blotting of treated MCF7 cells, pCHK2; details: 24 hour treatment
Experimental: (§1) MCF-7 are seeded into 6-well dishes and treated with various doses of (−)-lomaiviticin A (LA), in the absence and presence of ionizing radiation (IR) at a dose rate of 2.4295 Gy/min (2 Gy, X-Ray) for 24 hour. After treatment, the cells were harvested for lysis in AZ lysis buffer ([…] Tris, 250 mM NaCl, 1% Igepal, 0.1% SDS, 5 mM EDTA, 10 mM Na4P2O7, 10 mM NaF) containing protease and phosphatase inhibitors. Western blotting was performed (FIG. 26).
(§2) Primary antibodies used were: mouse monoclonal anti-Ser1981-pATM (10H11.E12, Millipore, Temecula, Calif.), mouse monoclonal anti-vinculin (SPM227, Abcam, Cambridge, Mass.), rabbit polyclonal anti-Ser428-pATR (Cell Signaling, Danvers, Mass.), rabbit polyclonal anti-Thr68-pCHK2 (Cell Signaling), rabbit monoclonal anti-CHK2 (D9C6, Cell Signaling), rabbit monoclonal anti-Ser345-pCHK1 (Cell Signaling), and rabbit monoclonal anti-CHK1 (E250, Millipore).
(§3) Proteins were visualized with horseradish peroxidase-conjugated anti-mouse and anti-rabbit immunoglobulin G (Thermo Scientific, Rockford, Ill.) and the SuperSignal West Pico Chemiluminescent Substrate detection system (Thermo Scientific).

[2] = tested on: pCHK1; assay: Western blotting of treated MCF7 cells, pCHK1; details: 24 hour treatment, listed as LA
Experimental: as §1, §2, §3

[3] = tested on: pATR; assay: Western blotting of treated MCF7 cells, pATR; details: 24 hour treatment, listed as LA
Experimental: as §1, §2, §3

[4] = tested on: hypoxic MCF7 cells; assay: Chronogenic survival assay in hypoxic versus normoxic MCF7 cells; details: hypoxia vs normoxia, 24 hours treatment
Experimental: (§4) A number of cancer cells lines were tested for effectness of (−)-lomaiviticin A or MK7-206. These cell lines are DNA damage response deficient cells (DDR-deficient cancer cells, indicated in FIGS. 16-24) or hypoxic cells (indicated in FIG. 25). The indicated cells were seeded at 500 cells per well in 6-23ll dishes and treated with various concentrations of (−)-lomaiviticin A at the indicated concentrations indicated in FIGS. 16-25 for a period of 24 hours, after which time the media containing the inhibitor was removed and replaced with fresh media. Colonies were fixed with 0.9% saline solution and stained with crystal violet 8-14 days later. Colonies consistent of greater than 50 cells were counted. Experiments utilizing MK7-206 for the cell lines which are presented in attached FIG. 28 (Table 2) and FIG. 30 (Table 4) were also conducted (at higher concentrations than for (−)lomaiviticin A).

[5] = tested on: DDR-deficient cancer cells (BRCA2, pten, KU80 and DNApk); assay: Chronogenic survival assay in DNA damage response deficient cancer cell lines
Experimental: as §4

[6] = tested on: hypoxic A549 cells; assay: Chronogenic survival assay in hypoxic versus normoxic A549 cells; details: hypoxia vs normoxia, 24 hours treatment
Experimental: as §4

[7] = tested on: pATM; assay: Western blotting of treated MCF7 cells, pATM; details: 24 hour treatment
Experimental: as §1, §2, §3

With (−)-lomaiviticin A the “change in pCHK2 (western blot)” value [1] was “increase”, the “change in pCHK1 (western blot)” value [2] was “no increase” and the “change in pATR (western blot)” value [3] was “no increase”. The “sensitivity of hypoxic cells compared with normoxic cells” value [4] was “more sensitive”, the “sensitivity of DDR-deficient cells to the compound” value ([5]; DDR-deficient (BRCA2, pten, KU80, DNApk) cells, 24 hours treatment, colonies stained 8-14 days later) was “more sensitive; also recorded: particularly susceptible” and the “efficacy against cell lines in which DNA damage repair systems are deficient or down regulated” value ([5]; FIGS. 27-30) was “excellent efficacy”. The “sensitivity of hypoxic cells compared with normoxic cells” value [6] was “more sensitive” and the “change in pATM (western blot)” value [7] was “increase”.
